Values quoted from earlier work as cited in PMC8583936, “Machine Learning Assisted Approach for Finding Novel High Activity Agonists of Human Ectopic Olfactory Receptors” (International Journal of Molecular Sciences, 2021).
Read-outs that look alike come from different tables or passages of the source.

How the values were obtained:
[1] = biological target: T1, OR1A1 (Homo sapiens, UniProt Q9P1Q5); conditions: cited from earlier work
T1 sequence (Q9P1Q5 1-309): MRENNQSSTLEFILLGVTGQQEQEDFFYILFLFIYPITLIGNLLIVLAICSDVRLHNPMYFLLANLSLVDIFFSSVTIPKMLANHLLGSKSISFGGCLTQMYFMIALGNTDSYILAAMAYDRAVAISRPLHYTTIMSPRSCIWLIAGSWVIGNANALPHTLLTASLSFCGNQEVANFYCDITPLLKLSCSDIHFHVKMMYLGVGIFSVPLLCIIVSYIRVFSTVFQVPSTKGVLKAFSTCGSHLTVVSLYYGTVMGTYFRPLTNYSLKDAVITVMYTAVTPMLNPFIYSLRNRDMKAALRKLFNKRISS

[2] = biological target: T2, OR2W1 (Homo sapiens, UniProt Q9Y3N9); conditions: cited from earlier work
T2 sequence (Q9Y3N9 1-320): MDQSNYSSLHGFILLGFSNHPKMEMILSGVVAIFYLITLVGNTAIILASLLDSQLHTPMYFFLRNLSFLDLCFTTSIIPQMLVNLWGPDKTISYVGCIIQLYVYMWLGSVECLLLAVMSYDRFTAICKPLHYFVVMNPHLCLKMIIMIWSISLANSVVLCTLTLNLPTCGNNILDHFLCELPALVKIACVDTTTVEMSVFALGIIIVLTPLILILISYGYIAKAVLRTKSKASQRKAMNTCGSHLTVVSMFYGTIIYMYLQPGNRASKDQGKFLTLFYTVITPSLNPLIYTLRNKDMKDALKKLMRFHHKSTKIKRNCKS

[3] = Table S1, ref Supplement references [1]-[9] as printed after each odorant name
[4] = Table S2, ref Supplement references [2]-[12] as printed after each odorant name

Structure (SMILES)	Class (agonist / non-agonist / conflicting info.) for OR1A1 [1, 3]	Class (agonist / non-agonist / antagonist / conflicting info.) for OR2W1 [2, 4]	Class (agonist / non-agonist / conflicting info.) for OR1A1 [1]	Class (agonist / non-agonist / antagonist / conflicting info.) for OR2W1 [2]
CCCC(S)CCO (centres unmarked) [3-Sulfanylhexan-1-ol]	Non-agonist	Non-agonist	–	–
CCc1cccc(O)c1 [3-ethylphenol]	Non-agonist	Non-agonist	–	–
CCCCC(=O)CC [3-heptanone]	Agonist	Agonist	–	–
CC/C=C\CC=O [3-hexenal, (3z)-]	Non-agonist	Non-agonist	–	–
Cc1cccc(O)c1 [3-methylphenol]	–	–	Non-agonist	Non-agonist
CCCCCC(=O)CC [3-octanone]	Agonist	Agonist	–	–
CCC(=O)OCCCc1ccccc1 [3-phenyl propyl propionate]	–	–	Agonist	Agonist
CCC(C)c1nccnc1OC (centres unmarked) [3-secbutyl-2-methoxypyrazine]	Non-agonist	Non-agonist	–	–
CCCCC(CC)CCC(=O)O (centres unmarked) [4-Ethyloctanoic acid]	Non-agonist	Non-agonist	–	–
CC(=O)CC(C)(C)S [4-Mercapto-4-methyl-2-pentanone]	Non-agonist	Non-agonist	–	–
COC1=C(C)OC(C)C1=O (centres unmarked) [4-Methoxy-2,5-dimethyl-3(2H)-furanone]	Non-agonist	Non-agonist	–	–
COCCC(C)(C)S [4-Methoxy-2-methyl-2-butanethiol]	Non-agonist	Non-agonist	–	–
CC(=O)c1ccc(C)cc1 [4-Methyl acetophenone]	Non-agonist	Agonist	–	–
CCCCC(C)CCC(=O)O (centres unmarked) [4-Methyloctanoic acid]	Non-agonist	Non-agonist	–	–
O=C1CCOc2ccccc21 [4-chromanone]	Agonist	Agonist	–	–
C=Cc1ccc(O)cc1 [4-ethenylphenol]	Non-agonist	Non-agonist	–	–
CCc1ccc(O)cc1 [4-ethylphenol]	Non-agonist	Non-agonist	–	–
CC/C=C\CCC=O [4-heptenal, (4z)-]	Non-agonist	Non-agonist	–	–
O=c1cc(O)c2ccccc2o1 [4-hydroxycoumarin]	–	–	Non-agonist	Non-agonist
Cc1ccc(O)cc1 [4-methylphenol]	Non-agonist	Non-agonist	–	–
CCCCC1OC(=O)CC1C (centres unmarked) [5-Butyl-4-methyloxolan-2-one]	Non-agonist	Non-agonist	–	–
CCC1OC(=O)C(O)=C1C (centres unmarked) [5-Ethyl-3-hydroxy-4-methylfuran-2(5H)-one]	Non-agonist	Non-agonist	–	–
CCCCCCC1CCC(=O)O1 (centres unmarked) [5-Hexyloxolan-2-one]	Non-agonist	Non-agonist	–	–

Structure (SMILES)	Class (agonist / non-agonist / conflicting info.) for OR1A1 [1, 3]	Class (agonist / non-agonist / antagonist / conflicting info.) for OR2W1 [2, 4]	Class (agonist / non-agonist / conflicting info.) for OR1A1 [1]	Class (agonist / non-agonist / antagonist / conflicting info.) for OR2W1 [2]
CCCCCCCCC1CCC(=O)O1 (centres unmarked) [5-Octyloxolan-2-one]	Non-agonist	Non-agonist	–	–
CCCCCC1CCC(=O)O1 (centres unmarked) [5-Pentyloxolan-2-one]	Agonist	Non-agonist	–	–
CCCC1CCCC(=O)O1 (centres unmarked) [6-Propyloxan-2-one]	Non-agonist	Non-agonist	–	–
COc1ccc2ccc(=O)oc2c1 [7-methoxycoumarin]	Non-agonist	Non-agonist	–	–
CC(C)CCCCCCCCCCC=O [12-methyltridecanal]	Non-agonist	Non-agonist	–	–
CC/C=C\CC/C=C/CO [(2E,6Z)-Nona-2,6-dien-1-ol]	Non-agonist	Non-agonist	–	–
CCCCC[C@H](C)O [(+)-2-heptanol]	Non-agonist	Non-agonist	–	–
CC12CCC(CC1=O)C2(C)C (stereo not drawn) [(+)-Camphor]	Non-agonist	Non-agonist	–	–
C=C(C)[C@H]1CC=C(C)C(=O)C1 [(+)-Carvone]	Agonist	Agonist	–	–
C=C(C)[C@@H]1CC[C@@H](C)C(=O)C1 [(+)-Dihydrocarvone]	Agonist	Agonist	–	–
CC(C)=C1CC[C@@H](C)CC1=O [(+)-Pulegone]	–	–	Non-agonist	Non-agonist
C=C1CC[C@]2(C(C)C)C[C@H]12 [(+)-Sabinene]	Non-agonist	Non-agonist	–	–
CC1(C)[C@H]2CC[C@]1(C)C(=O)C2 [(-)-Camphor]	Non-agonist	Non-agonist	–	–
CCCC/C=C/C=O [(E)-2-heptenal]	Non-agonist	Agonist	–	–
CCCCCC[C@@H](C)O [(R)-(-)-2-octanol]	Non-agonist	Non-agonist	–	–
CCCCCC[C@H](C)O [(S)-(+)-2-octanol]	Non-agonist	Non-agonist	–	–
CCOC(C)OCC [Acetal]	Non-agonist	Non-agonist	–	–
CC=O [Acetaldehyde]	–	–	Non-agonist	Non-agonist
CC(=O)O [Acetic acid]	Non-agonist	Non-agonist	–	–
CC(=O)C(C)O (centres unmarked) [Acetoin]	Non-agonist	Non-agonist	–	–
CC(=O)c1ccccc1 [Acetophenone]	–	–	Non-agonist	Agonist
C=CCc1ccccc1 [Allyl benzene]	–	–	Non-agonist	Non-agonist
C=CCSSCC=C [Allyl disulfide]	–	–	Non-agonist	Non-agonist
